Measurements from patent US7912651B2, “Function homology screening” (BioSeek LLC, priority 2000, dated 2011).
Entries after “also recorded” stand apart in the source; their conditions may differ.

Columns and labels:
[1] = test system: HUVEC cells; experiment: Optimized inflammatory assay combination: HUVEC treated with IL-1+TNF-α+IFN-γ, readout parameters by cell-based ELISA; parameters: species or system human; conditions: for activity (altered biomap) in the optimized assay combination: HUVEC, TNF-α (5 ng/ml)+IFN-γ (100 ng/ml)+IL-1, 24 hours
Procedure: Primary human umbilical vein endothelial cells (HUVEC) are used. Other cells that may replace HUVEC in the screen include primary microvascular endothelial cells, aortic or arteriolar endothelial cells or endothelial cell lines such as EAhy926 or E6-E7 4-5-2G cells or human telomerase reverse transcriptase-expressing endothelial cells (Simmons, J. Immunol., 148:267, 1992; Rhim, Carcinogenesis 19:673, 1998; Yang, J. Biol. Chem. 274:26141, 1999). 2×10^4 cells/ml are cultured to confluence in EGM-2 (Clonetics). Other media that may replace EGM-2 include EGM (Clonetics) and Ham's F12K medium supplemented with 0.1 mg/ml heparin and 0.03-0.05 mg/ml endothelial cell growth supplement (ECGS) and 10% FBS, or medium M199 (Life Technologies, Inc.) containing 20% fetal bovine serum and 2 ng/ml basic fibroblast growth factor (Jaffe, J. Clin. Invest. 52:2745, 1973; Hoshi, PNAS 81:6413, 1984). The disease environment present in chronic inflammatory diseases, such as Crohn's disease, differs from the normal condition by increased presence of multiple biologically active agents including IL-1, TNF-α, and IFN-γ (Woywodt, 1994; Kakazu, 1999). Other biologically active agents that may be increased in chronic inflammatory disease environments include IL-4, IL-6, IL-8, IL-12, IL-13, IL-18, TGFbeta, and histamine, as well as activated leukocytes and their products (Daig, 1996, Gut 38:216; Woywodt, 1994, Eur. cytokine Netw. 5:387; Kakazu, 1999 Am J. Gastroenterol. 94:2149; Pizarro, 1999, J. Immunol. 162:6829; Monteleone, 1999, J. Immunol. 163:143; […] Enteral Nutr 23:S20; Beck, 1999, […]. Bowel Dis. 5:44). Optimized assay combinations will contain at least two, and preferably three, four or more of these biologically active agents. Concentrations of agents are standard according to the literature, typically at physiologic concentrations. Concentrations may also be determined experimentally as the amount required to saturate the relevant receptor. A useful feature of the present invention is that combinatorial effects of multiple factors are observed over wide ranges of factor concentrations. Based on the factors included in an assay combination, a set of parameters for including in a biomap are selected. The experiments provided in FIG. 1A-1C illustrate the usefulness of the present invention in compound screening applications. […] After 24 hours, cultures are washed and evaluated for the presence of the parameters ICAM-1 (1), VCAM-1 (2), E-selectin (3), IL-8 (4), CD31 (5), HLA-DR (6) and MIG (7) by cell-based ELISA as described (Melrose, J. Immunol. 161:2457, 1998). For this, plates are blocked with 1% Blotto for 1 hr, and treated with primary antibodies (obtained from Pharmingen and Becton Dickinson) at 1 ng/ml for 2 hr. After washing, secondary peroxidase-conjugated anti-mouse IgG antibody (Promega) at 1:2500 is applied for 45 min. After washing, TMB substrate (Kierkegaard & Perry) is added and color developed. Development is stopped by addition of H2SO4 and the absorbance at 450 nm (subtracting the background absorbance at 600 nm) is read with a Molecular Dynamics plate reader. The relative expression levels of each parameter are indicated by the OD at 450 nm shown along the y-axis. The mean+/-SD from triplicate samples is shown. The assay combinations shown in FIG. 1 are useful in screening compounds that modulate TNF-α, IL-1 and IFN-γ signaling pathways, however, compounds must be evaluated separately in all three assay combinations to identify compounds that selectively modulate one or more of these pathways. In addition, compounds that selectively modulate combinatorial effects of these pathways cannot be distinguished. […] Confluent cultures of HUVEC cells are treated with TNF-α (5 ng/ml)+IFN-γ (100 ng/ml)+IL-1 (1 ng/ml) in the presence or absence of neutralizing anti-TNF-α or control antibody (Goat anti-IgG). […] In FIG. 3A, the relative expression of each parameter is shown along the y-axis as average value of the OD measured at 450 nm of triplicate samples. […]

[2] = test system: HUVEC cells; experiment: Lactate dehydrogenase (LDH) in HUVEC culture supernatants, CytoTox96 assay; format: cell-based, human; conditions: endothelial cell cultures
Procedure: Effect of over-expression of bcl-2 and bcl-xl proteins on a panel of assay combinations. HUVEC cells were transduced with either Bcl-2, Bcl-xL or control empty vector (control). Confluent cultures were treated with either ceramide (10 μm), TNF-α (5 ng/ml), ceramide (10 μm)+TNF-α (5 ng/ml), or media only. After 24 hours, cells were washed and evaluated for the surface expression of ICAM-1 (1), VCAM-1 (2), and MIG (3) by cell-based ELISA performed as described in FIG. 1. Cell supernatants were collected and analyzed for the presence of lactate dehydrogenase LDH (4) by CytoTox96 assay (Promega).
A panel of assay combinations that reproduces aspects of the response of the endothelial cells to inflammatory processes and stimuli enhancing apoptosis is used. […] Endothelial cells cultured under basal conditions display a low level of cell damage as measured by release of cytoplasmic lactate dehydrogenase from cells into the supernatant.

[3] = test system: TNF-R1 (p55); experiment: TNF-R1 (p55) morpholino antisense in HUVEC, flow cytometry; format: cell-based, human; conditions: 4 hours
Excerpt: Morpholino phosphorodiamidate (MF) antisense oligonucleotides are used. Other chemical classes of antisense oligonucleotides that can be substituted for morpholinos include but are not limited to phosphorotioate oligonucleotides, N3′-P5′ phosphoramidate oligonucleotides (NP), locked nucleic acid (LNA), 2′-O-methoxyethyl nucleic acid (MOE), 2′-fluoro-arabinonucleic acid (FANA), peptide nucleic acids (PNA) (reviewed in Toulme, Nature Biotech. 19:17, 2001). In the example in FIG. 18, antisense oligonucleotides for TNF-R1 (p55) (5′-[…]-3′)(SEQ ID NO:1), and the beta-globin control oligo (5′-[…]-3′)(SEQ ID NO:2) (Gene Tools Inc.) are used. The transfection mixture is prepared by mixing […] of stock morpholino (0.5 mM), […], and 4 ml of 200 mM EPEI (Ethoxylated PolyEthylenimine), vortexed, incubated at room temperature for 20 minutes, and then mixed with 3.5 ml of serum-free media to give a final 0.6 μM morpholino concentration. HUVEC cells are plated the day before in 24-well plates at 4-6×10e4 cells/well. Cells are washed once with serum-free media and incubated with 0.4 ml of the morpholino transfection mixture at 37° C. for 3 hours. Morpholino is removed, regular media (Epithelial Growth Media with 2% fetal calf serum, Clonetics) is added and cells allowed to recover overnight. The efficiency of loading of cells with morphino is monitored in cells incubated with a fluorescent morpholino, and is typically essentially 100 percent. HUVEC cells are then treated with either TNF-α (0.5 ng/ml), or IL-1 (1 ng/ml), or media only. After 4 hours, cells are harvested and evaluated for the cell surface expression of ICAM-1 (1), VCAM-1 (2), E-selectin (3), and CD31 (4) by flow cytometry. […] The TNF-R1 antisense specifically blocks induction of ICAM-1 and VCAM-1 by TNF-α, while it has no effect on induction of the same markers by the independent cell surface receptor for IL-1.

[4] = test system: HUVEC cells; experiment: HUVEC assay combinations with single pathway activators (TNF-α, IL-1, IFN-γ or activating antibody to p55), biomaps by cell-based ELISA; parameters: species or system human
Procedure: Confluent cultures of HUVEC cells are treated with TNF-α (5 ng/ml), IFN-γ (100 ng/ml), IL-1 (20 ng/ml), the combination of TNF-α+IFN-γ+IL-1, or media in the presence or absence of Act-anti-p55. After 24 hours, cultures are washed and evaluated for the cell surface expression of ICAM-1 (1), VCAM-1 (2), E-selectin (3), IL-8 (4), and MIG (5) by cell-based ELISA performed as described in FIG. 1. A color-coded representation of the resulting biomaps prepared from the data is shown in FIG. 8, coded as described in FIG. 2B. […]

[5] = test system: HUVEC cells; experiment: HUVEC in basal medium cultured with factor or agent for 24 hours, cell-based ELISA; parameters: species or system human; conditions: HUVEC cultured with the factor/agent for 24 hours, vs basal medium
Procedure: After 24 hours, cultures are washed and evaluated for the presence of the parameters ICAM-1 (1), VCAM-1 (2), E-selectin (3), IL-8 (4), CD31 (5), HLA-DR (6) and MIG (7) by cell-based ELISA as described (Melrose, J. Immunol. 161:2457, 1998). For this, plates are blocked with 1% Blotto for 1 hr, and treated with primary antibodies (obtained from Pharmingen and Becton Dickinson) at 1 ng/ml for 2 hr. After washing, secondary peroxidase-conjugated anti-mouse IgG antibody (Promega) at 1:2500 is applied for 45 min. After washing, TMB substrate (Kierkegaard & Perry) is added and color developed. Development is stopped by addition of H2SO4 and the absorbance at 450 nm (subtracting the background absorbance at 600 nm) is read with a Molecular Dynamics plate reader. The relative expression levels of each parameter are indicated by the OD at 450 nm shown along the y-axis. The mean+/−SD from triplicate samples is shown.
After 24 hours, cultures are washed and evaluated for the presence of the parameters ICAM-1 (1), VCAM-1 (2), E-selectin (3), IL-8 (4), CD31 (5), HLA-DR (6) and MIG (7) by cell-based ELISA performed as described in FIG. 1 and are reported as the OD at 450 nm in FIG. 2. The mean+/−SD from triplicate samples are shown. * indicates p<0.05 comparing results obtained with the two separate conditions.
After 24 hours, cultures are washed and evaluated for the presence of the parameters ICAM-1 (1), VCAM-1 (2), E-selectin (3), IL-8 (4), CD31 (5), HLA-DR (6) and MIG (7) by cell-based ELISA performed as described in FIG. 1 and are reported as the OD at 450 nm. The mean+/−SD from triplicate samples are shown. * indicates p<0.05 comparing results obtained with the two separate conditions.

Molecule: N#CC(C#N)=Cc1ccc([N+](=O)[O-])c(O)c1 [AG126]
- activity (altered biomap) in the optimized assay combination [1]: active compounds

Molecule: ceramide
- release of cytoplasmic lactate dehydrogenase into the supernatant (cell damage) vs basal conditions [2]: enhanced

Molecule: CC(Cc1ccc(O)c(O)c1)C(C)Cc1ccc(O)c(O)c1 (stereo not shown) [NHGA, nordihydroguaiaretic acid]
- activity (altered biomap) in the optimized assay combination [1]: altered biomaps

Molecule: 5′-AGGTCAGGCACGGTGGAGAGGC-3′ (all phosphorodiamidate morpholino (PMO)) [TNF-R1 antisense]
- biomap versus control oligo upon treatment with TNF-α ([3]; 0.6 μM morpholino, TNF-α (0.5 ng/ml)): altered biomap
- induction of ICAM-1 by IL-1 ([3]; IL-1 (1 ng/ml)): no effect
- induction of VCAM-1 by IL-1 ([3]; IL-1 (1 ng/ml)): no effect
- induction of ICAM-1 by TNF-α ([3]; TNF-α (0.5 ng/ml)): blocks
- induction of VCAM-1 by TNF-α ([3]; TNF-α (0.5 ng/ml)): blocks

Molecule: COc1cccc(-c2cc(=O)c3ccccc3o2)c1N [PD098059]
- activity (altered biomap) in the optimized assay combination [1]: altered biomaps

Molecule: S=C(S)N1CCCC1 [PDTC, pyrrolidine dithiocarbamate]
- activity (altered biomap) in the optimized assay combination [1]: altered biomaps

Molecule: O=C(NC1=CC(=O)c2ccccc2C1=O)c1ccccc1 [PPM-18]
- cellular toxicity at higher concentrations (2-fold) when tested alone ([1]; 2-fold above PPM-18 2 μM / AG126 25 μM): cellular toxicity
- activity (altered biomap) in the optimized assay combination [1]: active compounds

B1: p55-Fc: recombinant fusion protein containing the extracellular domains of the p55 TNF-α-receptor fused to immunoglobulin Fc domain (protein)
chain: LVPHLGDREKRDSVCPQGKYIHPQNNSICCTKCHKGTYLYNDCPGPGQDTDCRECESGSFTASENHLRHCLSCSKCRKEMGQVEISSCTVDRDTVCGCRKNQYRHYWSENLFQCFNCSLCLNGTVHLSCQEKQNTVCTCHAGFFLRENECVSCSNCKKSLECTKLCLPQIENVKGTEDSGTT
modifications: left off: a dimerising Fc or GST
notes: recombinant fusion protein containing the extracellular domains of the p55 TNF-α-receptor fused to immunoglobulin Fc domain
- activity (altered biomap) in the optimized assay combination [1]: active compound
- biomap of cultures containing activating antibody to TNF-α-receptor p55: sensitivity to the agent ([4]; Act-anti-p55, 24 hours): is sensitive; also recorded: alters
- biomap of the assay combination containing IL-1 alone: sensitivity to the agent ([4]; IL-1, 24 hours): not sensitive
- biomap of the assay combination containing TNF-α alone: sensitivity to the agent ([4]; TNF-α (5 ng/ml), 24 hours): altered; also recorded: is sensitive

B2: IFN-γ: cytokine used as factor (protein)
chain: QDPYVKEAENLKKYFNAGHSDVADNGTLFLGILKNWKEESDRKIMQSQIVSFYFKLFKNFKDDQSIQKSVETIKEDMNVKFFNSNKKKRDDFEKLTNYSVTDLNVQRKAIHELIQVMAELSPAAKTGKRKRSQMLFRGRRASQ
- level of HLA-DR [5]: increased
- level of ICAM-1 [5]: increased
- level of MIG [5]: increased
